# From patent US20090117613A1, “Method for redox reaction using an old yellow enzyme” (priority 2007, published 2009)
# How the values were obtained:
# Type in all cases: binding
# [1] = molecular target: T1, Geobacillus kaustophilus Old Yellow Enzyme (GkOYE, YP—148185.1) mutant H164A (Geobacillus kaustophilus, UniProt Q5KXG9, H164A); assay: Titration of GkOYE mutant H164A with pHBA
# T1 construct: made in house; host or cells: E. coli DH5alpha
# From the text: (§1) Mutants of GkOYE (Y28F, H164A, H167A; H164A/H167A; 2 clones each) were transformed into and expressed in E. coli DH5alpha.
# [2] = molecular target: T2, Geobacillus kaustophilus Old Yellow Enzyme (GkOYE, YP—148185.1), wild type (Geobacillus kaustophilus, UniProt Q5KXG9); assay: Titration of wild type GkOYE with pHBA
# T2 construct: made in house; host or cells: E. coli DH5α
# T2 sequence (Q5KXG9 1-340): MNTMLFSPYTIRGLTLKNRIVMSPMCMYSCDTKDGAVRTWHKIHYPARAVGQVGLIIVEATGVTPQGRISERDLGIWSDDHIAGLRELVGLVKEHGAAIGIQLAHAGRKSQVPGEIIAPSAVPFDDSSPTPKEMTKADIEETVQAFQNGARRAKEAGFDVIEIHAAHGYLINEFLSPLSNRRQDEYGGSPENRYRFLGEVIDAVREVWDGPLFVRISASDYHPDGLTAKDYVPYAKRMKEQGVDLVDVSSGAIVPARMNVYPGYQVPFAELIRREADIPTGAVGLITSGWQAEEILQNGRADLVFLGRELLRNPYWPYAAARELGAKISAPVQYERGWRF
# From the text: as §1
# [3] = molecular target: T3, Geobacillus kaustophilus Old Yellow Enzyme (GkOYE, YP—148185.1) mutant Y28F (Geobacillus kaustophilus, UniProt Q5KXG9, Y28F); assay: Titration of GkOYE mutant Y28F with pHBA
# T3 construct: made in house; host or cells: E. coli DH5alpha
# T3 sequence (Q5KXG9 whole entry Y28F): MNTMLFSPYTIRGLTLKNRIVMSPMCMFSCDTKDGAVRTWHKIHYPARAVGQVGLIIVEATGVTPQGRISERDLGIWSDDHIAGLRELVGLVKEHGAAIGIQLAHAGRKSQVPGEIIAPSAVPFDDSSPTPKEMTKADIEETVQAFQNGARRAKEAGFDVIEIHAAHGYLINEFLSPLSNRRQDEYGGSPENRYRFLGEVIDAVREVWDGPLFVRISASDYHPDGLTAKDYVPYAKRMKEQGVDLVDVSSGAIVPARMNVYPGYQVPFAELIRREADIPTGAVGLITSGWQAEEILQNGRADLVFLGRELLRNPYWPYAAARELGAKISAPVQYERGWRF
# From the text: as §1
# [4] = molecular target: T4, Geobacillus kaustophilus Old Yellow Enzyme (GkOYE, YP—148185.1) mutant H164A/H167A (Geobacillus kaustophilus, UniProt Q5KXG9, H164A/H167A); assay: Titration of GkOYE double mutant H164A/H167A with pHBA
# T4 construct: made in house; host or cells: E. coli DH5alpha
# T4 sequence (Q5KXG9 whole entry H164A/H167A): as the sequence (Q5KXG9 whole entry Y28F) above, with F28Y, H164A, H167A counted along it
# From the text: as §1
# [5] = molecular target: T5, Geobacillus kaustophilus Old Yellow Enzyme (GkOYE, YP—148185.1) mutant H167A (Geobacillus kaustophilus, UniProt Q5KXG9, H167A); assay: Titration of GkOYE mutant H167A with pHBA
# T5 construct: made in house; host or cells: E. coli DH5alpha
# T5 sequence (Q5KXG9 whole entry H167A): as the sequence (Q5KXG9 whole entry Y28F) above, with F28Y, H167A counted along it
# From the text: as §1
# T1 sequence (Q5KXG9 whole entry H164A): as the sequence (Q5KXG9 whole entry Y28F) above, with F28Y, H164A counted along it
compound,measurement,setting,value
O=Cc1ccc(O)cc1 [pHBA],Kd,[1],1 to 10 mM
same,Kd,[2],3.1 µM
same,Kd,[3],1 to 10 mM
same,Kd,[4],1 to 10 mM
same,Kd,[5],1 to 10 mM
